From patent US11766468B2, “Method of treating prostate cancer with GnRH antagonist” (priority 2012, dated 2023)
Square brackets hold non-standard residues; d marks the D form. Peptide text beside a SMILES is read from it. * marks the point of attachment. dPhe(4-NHCONH2) = NC(=O)Nc1ccc(C[C@@H](N)C(=O)O)cc1; Dihydroorotyl(S) = O=C1C[C@@H](C(=O)*)NC(=O)N1; dPhe(4-Cl) = N[C@H](Cc1ccc(Cl)cc1)C(=O)O; Phe(4-NH2) = Nc1ccc(C[C@H](N)C(=O)O)cc1; d2Nal = N[C@H](Cc1ccc2ccccc2c1)C(=O)O; Lys(iPr) = CC(C)NCCCC[C@H](N)C(=O)O; d3Pal = N[C@H](Cc1cccnc1)C(=O)O

Experiment: CS21 safety: treatment-emergent adverse events (MedDRA SOC/PT), crude incidence, also by subgroup
Assay type: in vivo
Procedure: The safety variables for this study were assessed on the following: the frequency and severity of adverse events (AEs); the presence of clinically significant changes in laboratory parameters (clinical chemistry, hematology and urinalysis); changes in electrocardiograms (ECGs) and vital signs; changes detected by physical examination; and body weight.
An AE was therefore any unfavorable or unintended sign (including an abnormal laboratory finding), symptom or disease temporally associated with the use of the product, whether or not related to the IMP.
An adverse drug reaction (ADR) was defined as an AE evaluated by the investigator as being probably or possibly related to treatment with the IMP.
AEs were graded according to the National Cancer Institute (NCI) Common Terminology Criteria for Adverse Events (CTCAE). In accordance with the CTCAE criteria, AEs were rated on a five-point scale corresponding to mild, moderate, severe, life-threatening or disabling and death. For those AEs not described in the CTCAE, a separate five-point rating scale was used for rating of the intensity of AEs as follows below:
Safety parameters were evaluated for all patients included in the ITT analysis set, comprising all 610 randomized patients who received at least one dose of study medication. All safety tables include four columns: the three treatment groups described separately, and the pooled degarelix group.
Adverse events were regarded as ‘treatment-emergent’ if they occurred in the time interval from initial dosing to end-of-study. Adverse events were considered ‘pre-treatment’ if they occurred between screening and the initial injections of IMP. As described above, all AEs were classified according to MedDRA (version 10.0) system organ class (SOC), sorted alphabetically, and by preferred term (PT), in decreasing frequency of occurrence. Treatment-emergent AEs were expressed in terms of intensity (using NCI CTCAE) and relationship to study drug.
Using the results from the summary of clinical efficacy (SCE) and summary of clinical safety (SCS) findings, different patient subgroups were analyzed. Subgroup distinguishers included race (white, black, and other), age (<65 years, […], and >75 years), weight (<70 kg, ≥70−<90 kg, and ≥90 kg), body mass index (BMI) (≤20, >20 to 30, and >30 kg/m^2)), region (North-America, Western Europe, Central and Eastern Europe and Other), and stage of prostate cancer (e.g., localized, locally advanced, and metastatic).

[1] = degarelix 240/80 mg, listed as degarelix

CC(=O)N[C@H](Cc1ccc2ccccc2c1)C(=O)N[C@H](Cc1ccc(Cl)cc1)C(=O)N[C@H](Cc1cccnc1)C(=O)N[C@@H](CO)C(=O)N[C@@H](Cc1ccc(NC(=O)[C@@H]2CC(=O)NC(=O)N2)cc1)C(=O)N[C@H](Cc1ccc(NC(N)=O)cc1)C(=O)N[C@@H](CC(C)C)C(=O)N[C@@H](CCCCNC(C)C)C(=O)N1CCC[C@H]1C(=O)N[C@H](C)C(N)=O [Degarelix, D-Alaninamide, N-acetyl-3-(2-naphthalenyl)-D-alanyl-4-chloro-D-phenylalanyl-3-(3-pyridinyl)-D-alanyl-L-seryl-4-[[[(4S)-hexahydro-2,6-dioxo-4-pyrimidinyl]carbonyl]amino]-L phenylalanyl-4-[(aminocarbonyl)amino]-D-phenylalanyl-L leucyl-N6-(1-methylethyl)-L-lysyl-L-prolyl] (Ac-[d2Nal][dPhe(4-Cl)][d3Pal]S[Phe(4-NH2)](Dihydroorotyl(S))[dPhe(4-NHCONH2)]L[Lys(iPr)]P[dA]-NH2)
ADRs, % of patients (degarelix 240/80 mg): 57%
ADRs, E events (degarelix 240/80 mg): 459
ADRs, N patients (degarelix 240/80 mg): 118
AEs leading to discontinuation, % of patients (degarelix 240/80 mg): 7%
AEs leading to discontinuation, E events (degarelix 240/80 mg): 15
AEs leading to discontinuation, N patients (degarelix 240/80 mg): 15
Alanine aminotransferase increased, % of patients (degarelix 240/80 mg): (10%)
All AEs, E = number of adverse events (degarelix 240/80 mg): 937
All AEs, N = number of patients (degarelix 240/80 mg): 163
Arthralgia, % of patients (degarelix 240/80 mg): ( 5%)
Aspartate aminotransferase increased, % of patients (degarelix 240/80 mg): ( 5%)
Back pain, % of patients (degarelix 240/80 mg): ( 6%)
Blood & lymphatic system disorders, % of patients (degarelix 240/80 mg): ( 2%)
Cardiac disorders, % of patients (degarelix 240/80 mg): ( 8%)
Chills, % of patients (degarelix 240/80 mg): ( 5%)
Constipation, % of patients (degarelix 240/80 mg): ( 5%)
Deaths (Grade 5), % of patients (degarelix 240/80 mg): 2%
Deaths (Grade 5), E events (degarelix 240/80 mg): 5
Deaths (Grade 5), N patients (degarelix 240/80 mg): 5
Ear & labyrinth disorders, % of patients (degarelix 240/80 mg): ( 3%)
Endocrine disorders, % of patients (degarelix 240/80 mg): (<1%)
Eye disorders, % of patients (degarelix 240/80 mg): ( 3%)
Fatigue, % of patients (degarelix 240/80 mg): ( 3%)
Gastrointestinal disorders, % of patients (degarelix 240/80 mg): (18%)
General disorders & administration site conditions, % of patients (degarelix 240/80 mg): (44%)
Hepatobiliary disorders, % of patients (degarelix 240/80 mg): (<1%)
Hot flush, % of patients (degarelix 240/80 mg): (26%)
Hypercholesterolaemia, % of patients (degarelix 240/80 mg): ( 3%)
Hypertension, % of patients (degarelix 240/80 mg): ( 6%)
Immune system disorders, % of patients (degarelix 240/80 mg): (<1%)
Infections & infestations, % of patients (degarelix 240/80 mg): (22%)
Injection site erythema, % of patients (degarelix 240/80 mg): (17%)
Injection site induration, % of patients (degarelix 240/80 mg): ( 4%)
Injection site nodule, % of patients (degarelix 240/80 mg): ( 3%)
Injection site pain, % of patients (degarelix 240/80 mg): (28%)
Injection site swelling, % of patients (degarelix 240/80 mg): ( 6%)
Injury, poisoning & procedural complications, % of patients (degarelix 240/80 mg): ( 5%)
Investigations, % of patients (degarelix 240/80 mg): (26%)
Metabolism & nutrition disorders, % of patients (degarelix 240/80 mg): ( 7%)
Musculoskeletal & connective tissue disorders, % of patients (degarelix 240/80 mg): (15%)
Nausea, % of patients (degarelix 240/80 mg): ( 4%)
Neoplasms benign, malignant & unspecified, % of patients (degarelix 240/80 mg): ( 5%)
Nervous system disorders, % of patients (degarelix 240/80 mg): (12%)
Psychiatric disorders, % of patients (degarelix 240/80 mg): ( 8%)
Renal & urinary disorders, % of patients (degarelix 240/80 mg): (14%)
Reproductive system & breast disorders, % of patients (degarelix 240/80 mg): ( 4%)
Respiratory, thoracic & mediastinal disorders, % of patients (degarelix 240/80 mg): (12%)
Serious AEs, % of patients (degarelix 240/80 mg): 10%
Serious AEs, E events (degarelix 240/80 mg): 26
Serious AEs, N patients (degarelix 240/80 mg): 21
Skin & subcutaneous tissue disorders, % of patients (degarelix 240/80 mg): ( 9%)
Urinary tract infection, % of patients (degarelix 240/80 mg): ( 5%)
Vascular disorders, % of patients (degarelix 240/80 mg): (34%)
Weight increased, % of patients (degarelix 240/80 mg): ( 9%)
Injection site adverse events, % of subjects (degarelix 240/80 mg s.c., leuprolide 7.5 mg i.m.): 35%
ADRs excluding injection site reactions, % of patients (degarelix 240/80 mg, leuprolide 7.5 mg): 43%
Arthralgia, % of patients [1]: 5%
Back pain, % of patients [1]: 6%
Chills, % of patients [1]: 5%
Constipation, % of patients [1]: 5%
Fatigue, % of patients [1]: 3%
Hot flush, % of patients [1]: 26%
Hypertension, % of patients [1]: 6%
Injection site erythema, % of patients [1]: 17%
Injection site induration, % of patients [1]: 4%
Injection site nodule, % of patients [1]: 3%
Injection site pain, % of patients [1]: 28%
Injection site swelling, % of patients [1]: 6%
Musculoskeletal & connective tissue disorders, % of patients [1]: 15%
Treatment-emergent adverse events (all AEs), % of patients [1]: 79%
Urinary tract infection, % of patients [1]: 5%
Weight increased, % of patients [1]: 9%
ADRs excluding injection site reactions, % of patients (degarelix 240/160 mg): 44%
ADRs, % of patients (degarelix 240/160 mg): 59%
ADRs, E events (degarelix 240/160 mg): 463
ADRs, N patients (degarelix 240/160 mg): 120
